Here are results for 1 compound from publication PMC8132073 (Journal of Applied Glycoscience, 2020).

Assay [1] addresses T1, KoRha (Klebsiella oxytoca, UniProt A0A0J9X262).
T1 sequence (A0A0J9X262 1-523): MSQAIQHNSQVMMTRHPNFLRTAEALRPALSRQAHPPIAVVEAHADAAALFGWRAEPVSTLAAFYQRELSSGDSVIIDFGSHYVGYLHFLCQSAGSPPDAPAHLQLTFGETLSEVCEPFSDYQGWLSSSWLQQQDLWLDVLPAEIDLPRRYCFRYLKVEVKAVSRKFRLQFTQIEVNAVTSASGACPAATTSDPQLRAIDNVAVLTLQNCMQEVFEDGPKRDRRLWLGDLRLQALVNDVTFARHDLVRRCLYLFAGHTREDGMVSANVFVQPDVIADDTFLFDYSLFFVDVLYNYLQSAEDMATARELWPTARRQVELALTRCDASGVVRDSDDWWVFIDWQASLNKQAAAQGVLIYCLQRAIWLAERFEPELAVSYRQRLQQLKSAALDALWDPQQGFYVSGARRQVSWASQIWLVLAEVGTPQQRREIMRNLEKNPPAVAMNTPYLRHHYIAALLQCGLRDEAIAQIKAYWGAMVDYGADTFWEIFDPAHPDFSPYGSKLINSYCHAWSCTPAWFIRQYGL
Description: p-nitrophenol release, absorbance […] nm. The class given is biochemical. To be noted: 100 mM sodium phosphate pH 7.0, 30 °C.

Assay [2] addresses T2, BsRhaA (Bacillus sp. GL1, UniProt Q93RE8).
T2 sequence (Q93RE8 1-886): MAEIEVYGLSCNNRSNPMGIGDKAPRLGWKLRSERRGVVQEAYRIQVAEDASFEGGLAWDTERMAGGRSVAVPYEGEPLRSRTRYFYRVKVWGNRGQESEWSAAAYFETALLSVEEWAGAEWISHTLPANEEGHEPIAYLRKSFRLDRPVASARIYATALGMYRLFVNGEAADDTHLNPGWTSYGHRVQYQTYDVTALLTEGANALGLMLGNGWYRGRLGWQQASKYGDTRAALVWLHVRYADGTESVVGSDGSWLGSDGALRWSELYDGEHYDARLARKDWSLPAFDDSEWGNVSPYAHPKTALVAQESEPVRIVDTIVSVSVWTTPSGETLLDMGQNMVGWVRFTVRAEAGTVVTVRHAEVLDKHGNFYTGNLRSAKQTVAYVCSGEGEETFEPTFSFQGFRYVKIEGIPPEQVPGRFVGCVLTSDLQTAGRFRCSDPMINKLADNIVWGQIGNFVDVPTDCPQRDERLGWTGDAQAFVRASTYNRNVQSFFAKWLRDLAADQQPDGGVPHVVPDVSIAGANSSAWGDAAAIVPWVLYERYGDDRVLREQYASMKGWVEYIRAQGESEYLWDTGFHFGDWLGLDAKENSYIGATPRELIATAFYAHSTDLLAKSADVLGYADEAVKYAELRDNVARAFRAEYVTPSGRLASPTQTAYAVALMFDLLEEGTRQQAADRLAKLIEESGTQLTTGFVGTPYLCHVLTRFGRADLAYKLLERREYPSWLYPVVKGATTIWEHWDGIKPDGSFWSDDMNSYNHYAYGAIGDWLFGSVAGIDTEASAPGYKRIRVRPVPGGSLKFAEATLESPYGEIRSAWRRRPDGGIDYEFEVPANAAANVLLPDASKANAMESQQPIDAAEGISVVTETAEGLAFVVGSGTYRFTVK
Description: p-nitrophenol release, absorbance […] nm. The class given is biochemical. To be noted: […] sodium phosphate pH […] °C.

Molecules are shown by their SMILES.

`C[C@@H]1O[C@@H](Oc2ccc([N+](=O)[O-])cc2)[C@H](O)[C@H](O)[C@H]1O` [pNP-α-L-Rha, 4-nitrophenyl-α-L-rhamnopyranoside]: the “p-nitrophenol release, absorbance 405 nm” value in assay [1] was “All four α-L-Rha-ases exhibited α-L-rhamnosyl-hydrolyzing and weak α-L-mannosyl-hydrolyzing activity”; in assay [2] it was “All four α-L-Rha-ases exhibited α-L-rhamnosyl-hydrolyzing and weak α-L-mannosyl-hydrolyzing activity”.
